# Experimental data published in patent US12258327B2, “5-membered heteroaryl-containing aminopyridine compounds as EGFR inhibitors” (YUHAN CORPORATION, priority 2021, dated 2025).
# Like-named read-outs stand apart in the source and are kept apart here.
# Columns and labels:
# EGFR del19/T790M/C797S = EGFR del19/T790M/C797S (Homo sapiens, UniProt P00533, C797S/DEL746-750/T790M); experiment: Biochemical EGFR kinase assay (Lance Ultra TR-FRET), triple mutant del19/T790M/C797S
# Summary of the method: (§1)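 Enzyme reactions lasted 1 hour at room temperature with test compounds between 0.003 and 10 μM, followed by 10 mM EDTA quench.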
# EGFR del19/C797S = EGFR del19/C797S (Homo sapiens, UniProt P00533, C797S/DEL746-750); experiment: Biochemical EGFR kinase assay (Lance Ultra TR-FRET), double mutant del19/C797S
# Summary of the method: as §1
# EGFR L858R/C797S = EGFR L858R/C797S (Homo sapiens, UniProt P00533, C797S/L858R); experiment: Biochemical EGFR kinase assay (Lance Ultra TR-FRET), double mutant L858R/C797S
# Sequence of EGFR L858R/C797S (P00533 25-1210 C797S/L858R): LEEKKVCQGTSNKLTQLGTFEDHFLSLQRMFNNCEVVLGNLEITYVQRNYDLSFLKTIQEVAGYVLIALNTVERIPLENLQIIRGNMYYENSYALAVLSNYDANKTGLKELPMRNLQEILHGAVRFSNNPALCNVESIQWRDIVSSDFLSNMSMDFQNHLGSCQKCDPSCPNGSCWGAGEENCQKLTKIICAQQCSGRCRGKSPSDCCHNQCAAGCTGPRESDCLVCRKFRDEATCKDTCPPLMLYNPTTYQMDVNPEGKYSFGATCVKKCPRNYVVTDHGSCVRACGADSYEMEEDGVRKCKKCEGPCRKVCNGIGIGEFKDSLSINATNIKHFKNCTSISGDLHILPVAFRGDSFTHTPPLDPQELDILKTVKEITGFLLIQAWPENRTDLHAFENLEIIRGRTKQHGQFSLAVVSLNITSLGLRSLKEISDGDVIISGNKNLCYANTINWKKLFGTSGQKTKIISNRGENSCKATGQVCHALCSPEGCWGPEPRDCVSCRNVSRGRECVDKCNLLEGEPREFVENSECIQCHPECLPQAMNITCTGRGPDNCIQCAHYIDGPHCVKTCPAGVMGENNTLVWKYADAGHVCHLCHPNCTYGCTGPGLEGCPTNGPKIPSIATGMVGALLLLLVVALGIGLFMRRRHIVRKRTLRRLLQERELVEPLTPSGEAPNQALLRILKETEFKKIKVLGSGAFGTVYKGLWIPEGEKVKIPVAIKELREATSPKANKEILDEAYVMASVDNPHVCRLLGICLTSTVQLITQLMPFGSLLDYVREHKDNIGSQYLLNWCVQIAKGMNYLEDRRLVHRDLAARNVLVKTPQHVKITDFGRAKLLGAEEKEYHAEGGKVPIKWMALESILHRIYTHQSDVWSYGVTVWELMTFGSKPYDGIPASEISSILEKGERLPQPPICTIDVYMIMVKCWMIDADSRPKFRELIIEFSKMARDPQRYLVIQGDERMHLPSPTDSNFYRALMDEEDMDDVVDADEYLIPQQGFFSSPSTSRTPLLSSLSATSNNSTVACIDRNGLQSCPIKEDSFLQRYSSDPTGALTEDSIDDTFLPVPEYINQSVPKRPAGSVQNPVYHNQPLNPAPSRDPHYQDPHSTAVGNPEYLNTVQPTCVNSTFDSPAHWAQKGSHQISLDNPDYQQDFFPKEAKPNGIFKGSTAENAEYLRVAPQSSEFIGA
# Summary of the method: as §1
# EGFR wildtype (WT) = EGFR wildtype (WT) (Homo sapiens, UniProt P00533); experiment: Biochemical EGFR kinase assay (Lance Ultra TR-FRET), wildtype
# Sequence of EGFR wildtype (WT) (P00533 25-1210): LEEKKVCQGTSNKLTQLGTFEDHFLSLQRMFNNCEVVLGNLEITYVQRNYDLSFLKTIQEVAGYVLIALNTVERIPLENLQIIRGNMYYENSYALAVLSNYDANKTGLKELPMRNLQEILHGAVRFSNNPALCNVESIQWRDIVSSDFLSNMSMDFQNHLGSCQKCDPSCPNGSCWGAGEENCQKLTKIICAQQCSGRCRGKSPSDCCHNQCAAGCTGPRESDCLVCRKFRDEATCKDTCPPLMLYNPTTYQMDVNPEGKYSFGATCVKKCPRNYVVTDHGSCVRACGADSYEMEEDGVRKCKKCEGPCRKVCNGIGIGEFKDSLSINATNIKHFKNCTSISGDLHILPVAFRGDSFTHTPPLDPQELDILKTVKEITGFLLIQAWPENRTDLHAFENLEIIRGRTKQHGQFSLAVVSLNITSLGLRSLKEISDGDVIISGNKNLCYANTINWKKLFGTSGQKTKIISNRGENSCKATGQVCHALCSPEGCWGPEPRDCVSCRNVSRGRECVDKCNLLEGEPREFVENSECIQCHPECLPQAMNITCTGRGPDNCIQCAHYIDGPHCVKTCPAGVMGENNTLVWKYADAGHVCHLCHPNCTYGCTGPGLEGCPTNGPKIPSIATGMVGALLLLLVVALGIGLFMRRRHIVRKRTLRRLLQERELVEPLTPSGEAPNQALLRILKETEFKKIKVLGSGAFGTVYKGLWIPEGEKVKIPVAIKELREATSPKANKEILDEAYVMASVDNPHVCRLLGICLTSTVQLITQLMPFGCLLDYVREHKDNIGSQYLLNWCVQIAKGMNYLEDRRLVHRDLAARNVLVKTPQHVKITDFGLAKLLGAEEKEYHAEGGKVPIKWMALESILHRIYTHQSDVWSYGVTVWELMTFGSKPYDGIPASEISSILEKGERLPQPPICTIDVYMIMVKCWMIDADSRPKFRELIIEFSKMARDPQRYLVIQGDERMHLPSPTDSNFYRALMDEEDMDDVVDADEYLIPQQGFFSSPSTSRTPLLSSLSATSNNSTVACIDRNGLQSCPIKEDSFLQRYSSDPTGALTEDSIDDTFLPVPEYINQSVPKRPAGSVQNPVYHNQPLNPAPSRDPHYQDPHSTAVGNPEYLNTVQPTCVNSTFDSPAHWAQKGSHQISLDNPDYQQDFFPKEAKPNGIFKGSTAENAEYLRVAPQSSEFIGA
# Summary of the method: as §1
# EGFR L858R/T790M/C797S = EGFR L858R/T790M/C797S (Homo sapiens, UniProt P00533, C797S/L858R/T790M); experiment: Biochemical EGFR kinase assay (Lance Ultra TR-FRET), triple mutant L858R/T790M/C797S
# Sequence of EGFR L858R/T790M/C797S (P00533 25-1210 T790M/C797S/L858R): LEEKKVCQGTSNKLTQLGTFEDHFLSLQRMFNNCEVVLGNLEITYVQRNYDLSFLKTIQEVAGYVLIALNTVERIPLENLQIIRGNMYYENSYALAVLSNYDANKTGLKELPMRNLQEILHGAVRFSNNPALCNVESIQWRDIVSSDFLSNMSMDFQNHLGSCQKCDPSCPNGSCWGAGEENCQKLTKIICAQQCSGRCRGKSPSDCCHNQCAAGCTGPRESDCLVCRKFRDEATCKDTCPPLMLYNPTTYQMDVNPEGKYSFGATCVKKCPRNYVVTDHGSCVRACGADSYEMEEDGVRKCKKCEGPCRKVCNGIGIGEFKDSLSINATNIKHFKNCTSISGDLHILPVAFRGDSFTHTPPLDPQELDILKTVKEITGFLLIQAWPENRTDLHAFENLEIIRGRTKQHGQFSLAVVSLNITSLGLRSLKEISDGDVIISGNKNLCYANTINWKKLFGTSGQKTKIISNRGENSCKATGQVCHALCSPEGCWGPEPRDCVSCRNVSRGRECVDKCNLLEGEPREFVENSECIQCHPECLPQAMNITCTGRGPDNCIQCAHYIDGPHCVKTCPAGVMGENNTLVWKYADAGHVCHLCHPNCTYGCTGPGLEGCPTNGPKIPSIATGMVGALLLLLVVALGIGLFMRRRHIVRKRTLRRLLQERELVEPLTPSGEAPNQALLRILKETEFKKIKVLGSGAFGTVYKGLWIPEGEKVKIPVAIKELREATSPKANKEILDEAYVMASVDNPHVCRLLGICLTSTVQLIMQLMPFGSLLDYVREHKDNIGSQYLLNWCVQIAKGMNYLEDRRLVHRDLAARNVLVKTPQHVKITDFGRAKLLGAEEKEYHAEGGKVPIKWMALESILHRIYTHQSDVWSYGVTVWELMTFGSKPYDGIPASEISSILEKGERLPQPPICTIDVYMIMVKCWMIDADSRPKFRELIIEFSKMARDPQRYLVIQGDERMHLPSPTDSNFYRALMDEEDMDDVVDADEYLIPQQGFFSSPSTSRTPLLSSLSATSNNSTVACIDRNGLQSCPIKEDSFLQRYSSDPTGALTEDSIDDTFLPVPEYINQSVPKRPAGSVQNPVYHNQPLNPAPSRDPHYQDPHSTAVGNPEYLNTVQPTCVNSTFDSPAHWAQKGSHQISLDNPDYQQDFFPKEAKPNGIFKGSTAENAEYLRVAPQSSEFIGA
# Summary of the method: as §1
# [1] = IC50 del19/T790M/C797S (nM) 100 μM ATP, 100 μM ATP
# [2] = IC50 del19/C797S (nM) 100 μM ATP, 100 μM ATP
# [3] = IC50 L858R/C797S (nM) 100 μM ATP, 100 μM ATP
# [4] = IC50 WT (nM) 100 μM ATP, 100 μM ATP
# [5] = IC50 L858R/T790M/C797S (nM) 100 μM ATP, 100 μM ATP
# [6] = Km ATP, read-out: IC50 del19/T790M/C797S (nM) Km ATP
# [7] = Km ATP, read-out: IC50 del19/C797S (nM) Km ATP
# [8] = Km ATP, read-out: IC50 L858R/C797S (nM) Km ATP
# [9] = Km ATP, read-out: IC50 WT (nM) Km ATP
# [10] = Km ATP, read-out: IC50 L858R/T790M/C797S (nM) Km ATP
# Sequence of EGFR del19/T790M/C797S (P00533 with tags, fused parts or gaps DEL746-750/T790M/C797S): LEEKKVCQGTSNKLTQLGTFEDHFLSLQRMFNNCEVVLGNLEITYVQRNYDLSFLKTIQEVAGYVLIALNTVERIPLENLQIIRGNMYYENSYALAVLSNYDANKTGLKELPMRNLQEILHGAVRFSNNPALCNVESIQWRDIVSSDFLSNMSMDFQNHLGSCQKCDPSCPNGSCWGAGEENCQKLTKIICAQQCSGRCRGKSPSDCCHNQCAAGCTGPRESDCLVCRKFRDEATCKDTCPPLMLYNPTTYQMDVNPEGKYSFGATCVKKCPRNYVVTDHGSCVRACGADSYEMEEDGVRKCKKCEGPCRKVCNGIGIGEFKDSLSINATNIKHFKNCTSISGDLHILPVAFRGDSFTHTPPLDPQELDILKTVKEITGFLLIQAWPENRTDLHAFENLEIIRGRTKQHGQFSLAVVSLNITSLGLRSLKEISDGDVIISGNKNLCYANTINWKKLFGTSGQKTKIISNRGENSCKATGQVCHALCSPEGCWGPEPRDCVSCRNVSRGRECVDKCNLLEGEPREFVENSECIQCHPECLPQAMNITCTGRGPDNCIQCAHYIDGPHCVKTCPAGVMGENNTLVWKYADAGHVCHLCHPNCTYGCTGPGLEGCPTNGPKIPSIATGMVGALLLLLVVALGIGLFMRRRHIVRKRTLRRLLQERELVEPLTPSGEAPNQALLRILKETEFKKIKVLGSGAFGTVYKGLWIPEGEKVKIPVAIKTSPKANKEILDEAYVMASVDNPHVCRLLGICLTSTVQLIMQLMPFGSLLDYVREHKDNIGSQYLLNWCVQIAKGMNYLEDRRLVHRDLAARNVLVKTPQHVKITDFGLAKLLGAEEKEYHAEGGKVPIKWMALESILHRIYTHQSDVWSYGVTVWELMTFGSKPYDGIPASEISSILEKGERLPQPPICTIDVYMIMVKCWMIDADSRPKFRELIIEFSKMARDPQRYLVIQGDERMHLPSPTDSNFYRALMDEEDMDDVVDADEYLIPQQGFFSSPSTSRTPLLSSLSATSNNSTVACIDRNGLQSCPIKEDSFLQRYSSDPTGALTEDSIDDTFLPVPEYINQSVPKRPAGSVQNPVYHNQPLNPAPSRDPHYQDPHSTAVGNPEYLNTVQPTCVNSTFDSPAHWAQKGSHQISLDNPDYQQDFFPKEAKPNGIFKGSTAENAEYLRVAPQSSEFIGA
SMILES,IC50 (EGFR del19/T790M/C797S; [1]) [nM],IC50 (EGFR del19/C797S; [2]) [nM],IC50 (EGFR L858R/C797S; [3]) [nM],IC50 (EGFR wildtype (WT); [4]) [nM],IC50 (EGFR L858R/T790M/C797S; [5]) [nM],"IC50 (EGFR del19/T790M/C797S; IC50 del19/T790M/C797S, 100 μM ATP) [nM]","IC50 (EGFR del19/C797S; IC50 del19/C797S, 100 μM ATP) [nM]","IC50 (EGFR L858R/C797S; IC50 L858R/C797S, 100 μM ATP) [nM]","IC50 (EGFR wildtype (WT); IC50 WT, 100 μM ATP) [nM]","IC50 (EGFR L858R/T790M/C797S; IC50 L858R/T790M/C797S, 100 μM ATP) [nM]",IC50 (EGFR del19/T790M/C797S; [6]) [nM],IC50 (EGFR del19/C797S; [7]) [nM],IC50 (EGFR L858R/C797S; [8]) [nM],IC50 (EGFR wildtype (WT); [9]) [nM],IC50 (EGFR L858R/T790M/C797S; [10]) [nM]
"CN(C)C[C@H]1C[C@@H](CNc2cc(Nc3ccnc(-c4cnn(S(=O)(=O)C5CC5)c4)n3)ncc2-c2ccn(C(F)F)n2)C1 [Example 203, N^2-(2-(1-(Cyclopropylsulfonyl)-1H-pyrazol-4-yl)pyrimidin-4-yl)-5-(1-(difluoromethyl)-1H-pyrazol-3-yl)-N^4-(((1s,3s)-3-((dimethylamino)methyl)cyclobutyl)methyl)pyridine-2,4-diamine]",0.1,1.1,8.3,2970,0.2,–,–,–,–,–,–,–,–,–,–
"C[C@]1(O)CC[C@@H](Nc2cc(Nc3ccnc(-c4cnn(S(=O)(=O)C5CC5)c4)c3)ncc2-c2ccn(C(F)F)n2)CC1 [Example 354, (1s,4s)-4-((2-((2-(1-(Cyclopropylsulfonyl)-1H-pyrazol-4-yl)pyridin-4-yl)amino)-5-(1-(difluoromethyl)-1H-pyrazol-3-yl)pyridin-4-yl)amino)-1-methylcyclohexan-1-ol]",–,–,–,–,–,2,135,2540,> 10000,13.1,–,–,–,–,–
"CN[C@H]1CC[C@H](CNc2cc(Nc3ccnc(-c4cnn(S(=O)(=O)C5CC5)c4)n3)ncc2-c2ccn(C(F)F)n2)CC1 [Example 193, N^2-(2-(1-(Cyclopropylsulfonyl)-1H-pyrazol-4-yl)pyrimidin-4-yl)-5-(1-(difluoromethyl)-1H-pyrazol-3-yl)-N^4-(((1r,4r)-4-(methylamino)cyclohexyl)methyl)pyridine-2,4-diamine]",0.2,0.7,7.2,2050,0.1,–,–,–,–,–,0.2,0.3,1,4,0.1
"Cn1ccc(-c2cnc(Nc3ccnc(-c4cnn(S(=O)(=O)C5CC5)c4)n3)cc2N[C@H]2CC[C@](O)(CO)CC2)n1 [Example 221, (1s,4s)-4-((2-((2-(1-(Cyclopropylsulfonyl)-1H-pyrazol-4-yl)pyrimidin-4-yl)amino)-5-(1-methyl-1H-pyrazol-3-yl)pyridin-4-yl)amino)-1-(hydroxymethyl)cyclohexan-1-ol]",0.3,0.5,4.9,1510,0.2,–,–,–,–,–,0.3,0.4,1,4.9,0.2
"O=S(=O)(C1CC1)n1cc(-c2nccc(Nc3cc(N[C@H]4CC[C@@H](CN5CCC5)CC4)c(-c4ccn(CC(F)(F)F)n4)cn3)n2)cn1 [Example 272, N^4-((1s,4s)-4-(Azetidin-1-ylmethyl)cyclohexyl)-N^2-(2-(1-(cyclopropylsulfonyl)-1H-pyrazol-4-yl)pyrimidin-4-yl)-5-(1-(2,2,2-trifluoroethyl)-1H-pyrazol-3-yl)pyridine-2,4-diamine]",0.5,0.5,1.1,325,0.2,–,–,–,–,–,0.3,23.9,0.4,1.4,0.1
"Cn1ccc(-c2cnc(Nc3ccnc(-c4cnn(S(=O)(=O)C5CC5)c4)n3)cc2NCC2(CO)COC2)n1 [Example 228, (3-(((2-((2-(1-(Cyclopropylsulfonyl)-1H-pyrazol-4-yl)pyrimidin-4-yl)amino)-5-(1-methyl-1H-pyrazol-3-yl)pyridin-4-yl)amino)methyl)oxetan-3-yl)methanol]",0.2,0.8,24.5,2360,0.2,–,–,–,–,–,0.1,0.6,0.9,3.3,0.1
"Cn1nc(-c2cnc(Nc3ccnc(-c4cnn(S(=O)(=O)C5CC5)c4)n3)cc2N[C@H]2CC[C@@H](NCCF)CC2)cc1C(F)(F)F [Example 255, N^2-(2-(1-(Cyclopropylsulfonyl)-1H-pyrazol-4-yl)pyrimidin-4-yl)-N^4-((1s,4s)-4-((2-fluoroethyl)amino)cyclohexyl)-5-(1-methyl-5-(trifluoromethyl)-1H-pyrazol-3-yl)pyridine-2,4-diamine]",0.8,2.4,25.4,> 10000,1.2,–,–,–,–,–,0.6,1.1,5.3,8.2,0.2
"O=S(=O)(C1CC1)n1cc(-c2nccc(Nc3cc(NC[C@H]4CC[C@H](CO)CC4)c(-c4ccn(C(F)F)n4)cn3)n2)cn1 [Example 22, ((1r,4r)-4-(((2-((2-(1-(Cyclopropylsulfonyl)-1H-pyrazol-4-yl)pyrimidin-4-yl)amino)-5-(1-(difluoromethyl)-1H-pyrazol-3-yl)pyridin-4-yl)amino)methyl)cyclohexyl)methanol]",1.1,2.1,21.5,> 10000,1.2,–,–,–,–,–,0.9,–,4.4,22.4,0.4
"O=S(=O)(C1CC1)n1cc(-c2nccc(Nc3cc(NC4CCC(F)CC4)c(-c4ccn(C(F)F)n4)cn3)n2)cn1 (centres unmarked) [Example 214, N^2-(2-(1-(Cyclopropylsulfonyl)-1H-pyrazol-4-yl)pyrimidin-4-yl)-5-(1-(difluoromethyl)-1H-pyrazol-3-yl)-N^4-(4-fluorocyclohexyl)pyridine-2,4-diamine]",–,–,–,–,–,–,–,–,–,–,5.2,9.9,3.4,45.2,3.1
"Cn1nc(-c2cnc(Nc3ccnc(-c4cnn(S(=O)(=O)C5CC5)c4)n3)cc2N[C@H]2CC[C@@](C)(O)CC2)cc1C(C)(C)O [Example 293, (1s,4s)-4-((2-((2-(1-(Cyclopropylsulfonyl)-1H-pyrazol-4-yl)pyrimidin-4-yl)amino)-5-(5-(2-hydroxypropan-2-yl)-1-methyl-1H-pyrazol-3-yl)pyridin-4-yl)amino)-1-methylcyclohexan-1-ol]",0.6,0.9,–,183,0.4,–,–,–,–,–,0.4,0.8,0.3,0.6,0.2
"O=S(=O)(C1CC1)n1cc(-c2ncc(F)c(Nc3cc(N[C@H]4CC[C@@H](CN5CCC5)CC4)c(-c4ccn(C(F)F)n4)cn3)n2)cn1 [Example 327, N^4-((1s,4s)-4-(Azetidin-1-ylmethyl)cyclohexyl)-N^2-(2-(1-(cyclopropylsulfonyl)-1H-pyrazol-4-yl)-5-fluoropyrimidin-4-yl)-5-(1-(difluoromethyl)-1H-pyrazol-3-yl)pyridine-2,4-diamine]",–,–,–,–,–,–,–,–,–,–,0.4,1.7,2.8,6.5,0.2
"CN1CC(Nc2cc(Nc3ccnc(-c4cnn(S(=O)(=O)C5CC5)c4)n3)ncc2-c2ccn(C(F)F)n2)CCC1=O (centres unmarked) [Example 37, 5-((2-((2-(1-(Cyclopropylsulfonyl)-1H-pyrazol-4-yl)pyrimidin-4-yl)amino)-5-(1-(difluoromethyl)-1H-pyrazol-3-yl)pyridin-4-yl)amino)-1-methylpiperidin-2-one]",1.4,16.6,264,> 10000,6.6,–,–,–,–,–,1.2,12.1,5,108,0.7
